Test results reported in ChEMBL document CHEMBL4033749, “Synthesis and biological evaluation of 5-fatty-acylamido-1, 3, 4-thiadiazole-2-thioglycosides” (Bioorg Med Chem Lett, 2017).
Values after ≈ are worked out from the molar mass of the structure shown. Active and inactive are the calls of the source. No cut-off for these calls is given here.

Key:
Klebsiella pneumoniae = assay: Antibacterial activity Klebsiella pneumoniae MTCC 618 by agar well method; format: functional
Bacillus subtilis = assay: Antibacterial activity Bacillus subtilis MTCC 441 by agar well method; format: functional
Staphylococcus aureus = assay: Antibacterial activity Staphylococcus aureus MTCC 96 by agar well method; format: functional
[1] = tested on: Staphylococcus epidermidis; assay: Antibacterial activity Staphylococcus epidermidis MTCC 9041 by agar well method; format: functional
Escherichia coli = assay: Antibacterial activity Escherichia coli MTCC 443 by agar well method; format: functional
Pseudomonas aeruginosa = assay: Antibacterial activity Pseudomonas aeruginosa MTCC 1688 by agar well method; format: functional
SK-OV-3 = assay: Cytotoxicity against human SKOV3 cells incubated for 24 hrs by MTT asasy; format: functional, cell-based
HeLa = assay: Cytotoxicity against human HeLa cells incubated for 24 hrs by MTT asasy; format: functional, cell-based
MDA-MB-231 = assay: Cytotoxicity against human MDA-MB-231 cells incubated for 24 hrs by MTT asasy; format: functional, cell-based
DU-145 = assay: Cytotoxicity against human DU145 cells incubated for 24 hrs by MTT asasy; format: functional, cell-based
CHO-K1 = assay: Cytotoxicity against CHOK1 cells incubated for 24 hrs by MTT asasy; format: cell-based, Cricetulus griseus
[2] = Homo sapiens, HeLa, 24 h, read-out: IC50
[3] = Homo sapiens, MDA-MB-231, 24 h, read-out: IC50
[4] = Homo sapiens, DU-145, 24 h, read-out: IC50
[5] = Cricetulus griseus, CHO-K1, 24 h, read-out: IC50
[6] = Homo sapiens, SK-OV-3, 24 h, read-out: IC50

MIC (Klebsiella pneumoniae)	MIC (Bacillus subtilis)	MIC (Staphylococcus aureus)	MIC [1]	MIC (Escherichia coli)	MIC (Pseudomonas aeruginosa)	Compound	IC50 (SK-OV-3; sk-ov-3)	IC50 (HeLa; [2])	IC50 (MDA-MB-231; [3])	IC50 (DU-145; [4])	IC50 (CHO-K1; [5])	IC50 (DU-145; du-145)	IC50 (HeLa; hela)	IC50 (MDA-MB-231; mda-mb-231)	IC50 (CHO-K1; cho-k1)	IC50 (SK-OV-3; [6])
inactive	inactive	inactive	inactive	inactive	inactive	CCCCCCCC/C=C\CCCCCCCC(=O)Nc1nnc(S[C@@H]2O[C@H](COC(C)=O)[C@H](OC(C)=O)[C@H](OC(C)=O)[C@H]2OC(C)=O)s1	Not Active	54.4 µM	23.6 µM	42 µM	26.3 µM	–	–	–	–	–
inactive	inactive	inactive	inactive	inactive	inactive	CCCCCCCC(=O)Nc1nnc(S[C@@H]2O[C@H](COC(C)=O)[C@H](OC(C)=O)[C@H](OC(C)=O)[C@H]2OC(C)=O)s1	Not Active	43.6 µM	18.9 µM	–	19.2 µM	Not Active	–	–	–	–
inactive	inactive	inactive	inactive	inactive	inactive	CCCCCC(=O)Nc1nnc(S[C@@H]2O[C@H](COC(C)=O)[C@H](OC(C)=O)[C@H](OC(C)=O)[C@H]2OC(C)=O)s1	Not Active	19.8 µM	25.4 µM	–	24.4 µM	Not Active	–	–	–	–
inactive	inactive	inactive	inactive	inactive	inactive	CCCCCCCCCCCCCCCC(=O)Nc1nnc(S[C@@H]2O[C@H](COC(C)=O)[C@H](OC(C)=O)[C@H](OC(C)=O)[C@H]2OC(C)=O)s1	Not Active	58.3 µM	25.4 µM	30.1 µM	90.4 µM	–	–	–	–	–
inactive	inactive	inactive	inactive	inactive	inactive	CCCCCCCC/C=C\CCCCCCCCCCCC(=O)Nc1nnc(S[C@@H]2O[C@H](COC(C)=O)[C@H](OC(C)=O)[C@H](OC(C)=O)[C@H]2OC(C)=O)s1	Not Active	58.5 µM	25.3 µM	28.4 µM	25.2 µM	–	–	–	–	–
–	–	–	–	–	–	CO[C@@]12[C@H](COC(N)=O)C3=C(C(=O)C(C)=C(N)C3=O)N1C[C@@H]1N[C@@H]12 [MITOMYCIN]	Not Active	–	–	–	13.2 to 13.4 µM	Not Active	Not Active	Not Active	–	–
> 150 µg/mL	> 150 µg/mL	> 150 µg/mL	> 150 µg/mL	> 150 µg/mL	> 150 µg/mL	C=CCCCCCCCCC(=O)Nc1nnc(S[C@@H]2O[C@H](CO)[C@H](O)[C@H](O)[C@H]2O)s1	Not Active	58.3 µM	80.6 µM	–	–	Not Active	–	–	Not Active	–
> 150 µg/mL	> 150 µg/mL	> 150 µg/mL	> 150 µg/mL	> 150 µg/mL	> 150 µg/mL	CCCCCCCCCC(=O)Nc1nnc(S[C@@H]2O[C@H](CO)[C@H](O)[C@H](O)[C@H]2O)s1	Not Active	25.9 µM	53.1 µM	–	–	Not Active	–	–	Not Active	–
> 150 µg/mL	> 150 µg/mL	> 150 µg/mL	> 150 µg/mL	> 150 µg/mL	> 150 µg/mL	CCCCCCCCCCCCCCCC(=O)Nc1nnc(S[C@@H]2O[C@H](CO)[C@H](O)[C@H](O)[C@H]2O)s1	Not Active	14.2 µM	62.3 µM	–	–	Not Active	–	–	Not Active	–
inactive	inactive	inactive	inactive	inactive	inactive	CCCCCCCCCCCCCCCCCC(=O)Nc1nnc(S[C@@H]2O[C@H](COC(C)=O)[C@H](OC(C)=O)[C@H](OC(C)=O)[C@H]2OC(C)=O)s1	Not Active	97.5 µM	23.6 µM	31.2 µM	44.7 µM	–	–	–	–	–
> 150 µg/mL	> 150 µg/mL	> 150 µg/mL	> 150 µg/mL	> 150 µg/mL	> 150 µg/mL	CCCCCCCCCCCCCCCCCC(=O)Nc1nnc(S[C@@H]2O[C@H](CO)[C@H](O)[C@H](O)[C@H]2O)s1	Not Active	11.2 µM	67.1 µM	–	–	Not Active	–	–	Not Active	–
6.25 µg/mL (≈ 18.7 µM)	1.56 µg/mL (≈ 4.67 µM)	1.56 µg/mL (≈ 4.67 µM)	3.12 µg/mL (≈ 9.35 µM)	12.5 µg/mL (≈ 37.4 µM)	12.5 µg/mL (≈ 37.4 µM)	CC1(C)S[C@@H]2[C@H](NC(=O)Cc3ccccc3)C(=O)N2[C@H]1C(=O)O [PENICILLIN G]	–	–	–	–	–	–	–	–	–	–
inactive	inactive	inactive	inactive	inactive	inactive	C=CCCCCCCCCC(=O)Nc1nnc(S[C@@H]2O[C@H](COC(C)=O)[C@H](OC(C)=O)[C@H](OC(C)=O)[C@H]2OC(C)=O)s1	Not Active	77.7 µM	60.9 µM	22.9 µM	16.3 µM	–	–	–	–	–
12.5 µg/mL (≈ 26.2 µM)	25 µg/mL (≈ 52.3 µM)	> 150 µg/mL	> 150 µg/mL	> 150 µg/mL	> 150 µg/mL	CCCCCCCCCCCC(=O)Nc1nnc(S[C@@H]2O[C@H](CO)[C@H](O)[C@H](O)[C@H]2O)s1	Not Active	8.7 µM	32 µM	–	–	Not Active	–	–	Not Active	–
> 150 µg/mL	> 150 µg/mL	> 150 µg/mL	> 150 µg/mL	> 150 µg/mL	> 150 µg/mL	CCCCCC(=O)Nc1nnc(S[C@@H]2O[C@H](CO)[C@H](O)[C@H](O)[C@H]2O)s1	Not Active	45.6 µM	28.7 µM	–	–	Not Active	–	–	Not Active	–
inactive	inactive	inactive	inactive	inactive	inactive	CCCCCCCCCCCCCC(=O)Nc1nnc(S[C@@H]2O[C@H](COC(C)=O)[C@H](OC(C)=O)[C@H](OC(C)=O)[C@H]2OC(C)=O)s1	Not Active	61.3 µM	26.2 µM	34.7 µM	16.3 µM	–	–	–	–	–
inactive	inactive	inactive	inactive	inactive	inactive	CCCCCCCCCCCC(=O)Nc1nnc(S[C@@H]2O[C@H](COC(C)=O)[C@H](OC(C)=O)[C@H](OC(C)=O)[C@H]2OC(C)=O)s1	Not Active	51.9 µM	26.7 µM	16.9 µM	27.7 µM	–	–	–	–	–
25 µg/mL (≈ 49.4 µM)	50 µg/mL (≈ 98.9 µM)	> 150 µg/mL	> 150 µg/mL	> 150 µg/mL	> 150 µg/mL	CCCCCCCCCCCCCC(=O)Nc1nnc(S[C@@H]2O[C@H](CO)[C@H](O)[C@H](O)[C@H]2O)s1	Not Active	31 µM	33.3 µM	–	–	Not Active	–	–	Not Active	–
inactive	inactive	inactive	inactive	inactive	inactive	CCCCCCCCCC(=O)Nc1nnc(S[C@@H]2O[C@H](COC(C)=O)[C@H](OC(C)=O)[C@H](OC(C)=O)[C@H]2OC(C)=O)s1	Not Active	44.9 µM	19.2 µM	34.4 µM	19.4 µM	–	–	–	–	–
–	–	–	–	–	–	COc1cccc2c1C(=O)c1c(O)c3c(c(O)c1C2=O)C[C@@](O)(C(=O)CO)C[C@@H]3O[C@H]1C[C@H](N)[C@H](O)[C@H](C)O1 [DOXORUBICIN]	–	0.7 µM	0.7 to 0.8 µM	0.7 to 0.8 µM	–	–	–	–	Not Active	0.7 to 0.8 µM
> 150 µg/mL	> 150 µg/mL	> 150 µg/mL	> 150 µg/mL	> 150 µg/mL	> 150 µg/mL	CCCCCCCC/C=C\CCCCCCCC(=O)Nc1nnc(S[C@@H]2O[C@H](CO)[C@H](O)[C@H](O)[C@H]2O)s1	Not Active	8.8 µM	43.6 µM	–	–	Not Active	–	–	Not Active	–
> 150 µg/mL	> 150 µg/mL	> 150 µg/mL	> 150 µg/mL	> 150 µg/mL	> 150 µg/mL	CCCCCCCC(=O)Nc1nnc(S[C@@H]2O[C@H](CO)[C@H](O)[C@H](O)[C@H]2O)s1	–	50.8 µM	30.8 µM	–	60.1 µM	Not Active	–	–	–	56 µM

Compound	MIC (Klebsiella pneumoniae)	MIC (Bacillus subtilis)	MIC (Staphylococcus aureus)	MIC [1]	MIC (Escherichia coli)	MIC (Pseudomonas aeruginosa)	IC50 (SK-OV-3; sk-ov-3)	IC50 (HeLa; [2])	IC50 (MDA-MB-231; [3])	IC50 (DU-145; [4])	IC50 (CHO-K1; [5])	IC50 (DU-145; du-145)	IC50 (HeLa; hela)	IC50 (MDA-MB-231; mda-mb-231)	IC50 (CHO-K1; cho-k1)	IC50 (SK-OV-3; [6])
CN[C@@H]1[C@H](O[C@H]2[C@H](O[C@H]3[C@H](O)[C@@H](O)[C@H](N=C(N)N)[C@@H](O)[C@@H]3N=C(N)N)O[C@@H](C)[C@]2(O)C=O)O[C@@H](CO)[C@H](O)[C@H]1O [STREPTOMYCIN]	3.12 µg/mL (≈ 5.37 µM)	6.25 µg/mL (≈ 10.7 µM)	6.25 µg/mL (≈ 10.7 µM)	3.12 µg/mL (≈ 5.37 µM)	6.25 µg/mL (≈ 10.7 µM)	1.56 µg/mL (≈ 2.69 µM)	–	–	–	–	–	–	–	–	–	–
